The text below walks through data of ChEMBL document CHEMBL1201862, “PubChem BioAssay data set” (2004).

Active and inactive are the calls of the source.

In experiment [1] the target is E3 ubiquitin-protein ligase Mdm2 (Homo sapiens, UniProt Q00987). The experiment can be described thus: enhancers of MDM2-luciferase reporter signal, concentration-effect titration, project on inhibitors of MDM2 ubiquitin ligase, cellular assay, luminescent readout, 384-well plate format (AID 1394).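 Note: MDM2 E3 inhibitors raise luminescence so EC50 is for signal enhancement.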 It counts as functional.
E3 ubiquitin-protein ligase Mdm2, sequence (Q00987 whole entry): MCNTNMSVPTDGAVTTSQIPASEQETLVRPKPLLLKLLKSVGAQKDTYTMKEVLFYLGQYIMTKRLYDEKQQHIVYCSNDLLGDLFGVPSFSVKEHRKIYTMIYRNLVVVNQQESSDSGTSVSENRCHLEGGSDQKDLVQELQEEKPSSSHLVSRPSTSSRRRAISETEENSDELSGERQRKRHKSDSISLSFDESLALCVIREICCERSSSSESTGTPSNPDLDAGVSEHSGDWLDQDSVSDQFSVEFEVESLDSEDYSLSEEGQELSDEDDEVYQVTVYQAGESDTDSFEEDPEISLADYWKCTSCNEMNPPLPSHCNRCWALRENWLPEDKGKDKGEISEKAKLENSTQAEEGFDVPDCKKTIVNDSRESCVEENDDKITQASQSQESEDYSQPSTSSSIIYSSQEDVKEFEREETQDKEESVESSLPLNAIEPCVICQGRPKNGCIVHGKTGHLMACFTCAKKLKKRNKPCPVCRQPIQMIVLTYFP
The test system of another experiment is BJ. The experiment can be described thus: cytotoxicity toward Ras-transformed BJeLR fibroblasts, dose response, cell-based, alamar blue fluorescence, cherrypicked samples (AID 2631).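 Note: confirmatory dose-response assay in RAS-dependent BJ fibroblasts engineered with TERT, LT and ST, with cytotoxicity read by fluorescence.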 It counts as functional. To be noted: Homo sapiens.
Experiment [2] in a line: NIH-3T3 fibroblast cytotoxicity, dose response, cytotoxicity control, cell-based, fluorescence, Alamar Blue, secondary assay (AID 2327).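 Note: NIH-3T3 mouse fibroblasts cultured with fluconazole at 8 µg/mL.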 It counts as functional.
A further experiment has as its system INS1. The experiment can be described thus: beta cell apoptosis inhibitors, cytokine rescue, dose response, luminescence, retest (AID 449756).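 Note: cell death triggered by IL-1 beta plus TNF-alpha plus IFN-gamma mixture; protective hits raise ATP signal compared with cytokine alone wells.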 To be noted: Rattus norvegicus. It counts as functional, cell-based.
The nature of experiment [3]: non-specific cell cytotoxicity, dose response, cytotoxicity control for PAX8 inhibitor project, plate reader, dry powder samples (AID 743021). It counts as functional, cell-based.
In the next experiment the target is Paired box protein Pax-8 (Homo sapiens, UniProt Q06710). Put plainly: inhibitors of PAX8-driven TPO luciferase reporter, dose response, RMG-I cells, cherry-pick (AID 687027).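 Note: luciferase reporter driven by Pax8 target thyroperoxidase promoter measured by SteadyGlo luminescence.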 It counts as functional, cell-based.
Paired box protein Pax-8, sequence (Q06710 whole entry): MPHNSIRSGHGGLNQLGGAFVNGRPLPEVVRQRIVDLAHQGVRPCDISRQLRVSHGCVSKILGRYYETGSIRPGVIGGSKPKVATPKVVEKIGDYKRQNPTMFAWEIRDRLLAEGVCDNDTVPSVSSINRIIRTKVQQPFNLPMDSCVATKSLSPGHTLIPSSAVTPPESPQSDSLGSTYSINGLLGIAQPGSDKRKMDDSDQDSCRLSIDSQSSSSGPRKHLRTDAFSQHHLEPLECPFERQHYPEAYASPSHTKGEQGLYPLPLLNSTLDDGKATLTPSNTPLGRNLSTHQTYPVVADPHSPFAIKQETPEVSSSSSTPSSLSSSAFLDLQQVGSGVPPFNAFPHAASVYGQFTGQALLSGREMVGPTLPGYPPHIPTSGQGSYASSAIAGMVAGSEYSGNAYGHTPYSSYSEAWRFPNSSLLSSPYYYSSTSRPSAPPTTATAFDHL
A short description of experiment [4]: Late-stage results from the probe development effort to identify antagonists of arginine vasopressin receptor 1a (AVPR1a): fluorescence-based cell-based dose response OXTR inhibition counterscreen assay. It counts as functional.
Another experiment addresses Vasopressin V2 receptor (Homo sapiens, UniProt P30518). Put plainly: Late-stage results from the probe development effort to identify antagonists of arginine vasopressin receptor 1a (AVPR1a): fluorescence-based cell-based dose response AVPR2 inhibition counterscreen assay. It counts as functional.
The target of a further experiment is Vasopressin V1b receptor (Homo sapiens, UniProt P47901). The experiment can be described thus: Late-stage results from the probe development effort to identify antagonists of arginine vasopressin receptor 1a (AVPR1a): fluorescence-based cell-based dose response AVPR1b inhibition counterscreen assay. It counts as functional.
Vasopressin V1b receptor, sequence (P47901 whole entry): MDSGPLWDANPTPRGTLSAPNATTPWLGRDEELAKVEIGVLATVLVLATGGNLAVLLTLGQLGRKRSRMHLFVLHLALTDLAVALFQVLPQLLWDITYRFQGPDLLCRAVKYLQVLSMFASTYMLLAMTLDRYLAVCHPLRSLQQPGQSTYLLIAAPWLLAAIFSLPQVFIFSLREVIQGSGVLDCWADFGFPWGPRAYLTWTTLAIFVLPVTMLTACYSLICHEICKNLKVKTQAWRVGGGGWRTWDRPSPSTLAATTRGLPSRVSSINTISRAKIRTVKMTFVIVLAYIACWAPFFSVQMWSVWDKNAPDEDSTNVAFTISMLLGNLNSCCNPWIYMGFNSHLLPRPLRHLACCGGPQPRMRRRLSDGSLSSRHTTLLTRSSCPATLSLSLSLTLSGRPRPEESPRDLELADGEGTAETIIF
A short description of experiment [5]: Late-stage results from the probe development effort to identify antagonists of arginine vasopressin receptor 1a (AVPR1a): fluorescence-based cell-based dose response AVPR1a inhibition assay. It counts as functional.
Experiment [6] can be described thus: cytotoxicity in OVCAR8 ovarian cancer cells, dose response, PAX8 project, cell-based, plate reader, dry powder samples (AID 743197). It counts as functional. To be noted: OVCAR-8.
The nature of experiment [7]: NIH:OVCAR-3 ovarian cancer cell cytotoxicity, dose response, PAX8 inhibitor project, plate reader, dry powder samples (AID 743044). It counts as functional, cell-based.
The nature of experiment [8]: cytotoxicity in COV434 cells, dose response, cytotoxicity control for PAX8 inhibitor project, cell-based, plate reader, dry powder, SA7 (AID 743145). It counts as functional.
A short description of experiment [9]: PAX5 activity inhibitors, dose response, selectivity assay for PAX8 inhibitor project, cell-based, plate reader, dry powder samples (AID 743047).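 Note: HEK293 cells carrying a Pax5 driven CD19 promoter luciferase reporter; potency of inhibitors that lower reporter luminescence.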 It counts as functional.
The nature of experiment [10]: cytotoxicity in COV362 ovarian cancer cells, dose response, cytotoxicity control for PAX8 inhibitor project, cell-based, plate reader, dry powder, SA12 (AID 743144). It counts as functional.
Experiment [11] can be described thus: IGROV1 ovarian cancer cell cytotoxicity, dose response, PAX8 inhibitor project, plate reader, dry powder samples (AID 743043). It counts as functional, cell-based. To be noted: IGROV-1.
Experiment [12] is described as follows: cytotoxicity dependent on PAX8, dose response, cell-based, plate reader, dry powder (AID 743049). It counts as functional.
Experiment [13] is described as follows: cytotoxicity in OV-90 ovarian cancer cells, dose response, PAX8 inhibitor project, cell-based, plate reader, dry powder, SA8 (AID 743149). It counts as functional.
Experiment [14] in a line: cytotoxicity in OVCAR4 cells, dose response, cytotoxicity control for PAX8 inhibitor project, cell-based, plate reader, dry powder, SA11 (AID 743150). It counts as functional. To be noted: OVCAR-4.
Experiment [15] can be described thus: HepG2 cell cytotoxicity, dose response, cytotoxicity control, ATP luminescence, dry powder, Set4 (AID 743143). It counts as functional, cell-based.
Experiment [16] addresses NAD-dependent protein deacylase sirtuin-5, mitochondrial (Homo sapiens, UniProt Q9NXA8). Put plainly: SIRT5 desuccinylase inhibitors, dose response, biochemical, fluorescence imaging, cherry-pick, set 5 (AID 720591).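 Note: desuccinylation of succinyl peptide AMC substrate read as fluorescence after trypsin release; potency of inhibitors that lower fluorescence and may act on trypsin instead.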
The test system of another experiment is P388/ADR. Put plainly: cells. It counts as functional. The following applies: Mus musculus.
A short description of experiment [17]: HCT116 cell viability decrease, GSK3B pretreatment – CellTiter-Glo, IC50, dose response (AID 1117339). It counts as functional. The following applies: HCT-116.
The test system of another experiment is SN12K1. Put plainly: cells. The following applies: Homo sapiens. It counts as functional.
Experiment [18] in a line: RKO cell viability reduction, dose response, CellTiter-Glo luminescence (AID 1117322). It counts as functional.
Experiment [19] in a line: cytotoxicity toward HT-29 cells – cell-based, CellTiter-Glo luminescence, IC50, dose response (AID 1117330). It counts as functional.
A short description of experiment [20]: HeLa 4N DNA content increase, dose response, cell-based, IC50 (AID 1117351). It counts as functional.
A short description of experiment [21]: microbe, parasite or virus in culture. It counts as functional. To be noted: Mycobacterium tuberculosis.
The subject of the next experiment is P388. The experiment can be described thus: cells. It counts as functional. To be noted: Mus musculus.
Experiment [22] can be described thus: HeLa 2N DNA content increase, dose response, cell-based, IC50 (AID 1117349). It counts as functional.

Vasopressin V2 receptor, sequence (P30518 whole entry): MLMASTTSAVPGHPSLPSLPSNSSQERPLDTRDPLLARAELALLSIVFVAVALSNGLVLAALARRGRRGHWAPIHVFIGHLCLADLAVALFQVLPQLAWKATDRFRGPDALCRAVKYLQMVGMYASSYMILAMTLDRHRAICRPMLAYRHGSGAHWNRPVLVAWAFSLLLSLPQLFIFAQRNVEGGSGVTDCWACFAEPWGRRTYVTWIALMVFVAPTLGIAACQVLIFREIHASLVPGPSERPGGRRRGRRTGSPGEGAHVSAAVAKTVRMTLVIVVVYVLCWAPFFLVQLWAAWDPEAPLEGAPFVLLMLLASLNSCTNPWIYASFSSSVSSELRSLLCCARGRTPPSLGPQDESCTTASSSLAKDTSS
NAD-dependent protein deacylase sirtuin-5, mitochondrial, sequence (Q9NXA8 whole entry): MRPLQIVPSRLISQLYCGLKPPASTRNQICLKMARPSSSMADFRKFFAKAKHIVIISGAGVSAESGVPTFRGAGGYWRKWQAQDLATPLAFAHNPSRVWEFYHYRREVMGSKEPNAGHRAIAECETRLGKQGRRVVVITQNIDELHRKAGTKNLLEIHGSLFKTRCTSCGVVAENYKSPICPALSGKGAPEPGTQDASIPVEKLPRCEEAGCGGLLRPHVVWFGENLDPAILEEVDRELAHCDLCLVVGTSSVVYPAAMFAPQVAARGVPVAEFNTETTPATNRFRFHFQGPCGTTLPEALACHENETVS

On to `CC(=O)/C=C/n1c(=S)oc2ccccc21`, for which the EC50 was 0.01 µM (not active) in experiment [1], 0.508 µM (inconclusive) in the experiment on BJ and 3.97 µM (inconclusive) in experiment [2]. In addition, the AC50 in the experiment with INS1 was 8.12 µM (active); in [3], 10 µM (active); on Paired box protein Pax-8, 5.95 µM (active).

As to `COc1ccc(N(CC2CC2)C(=O)N2CCN(c3ncc(Cl)cc3Cl)CC2)cc1`, the IC50 in experiment [4] is 0.1 µM (active); on Vasopressin V2 receptor, 2.78 µM (active); on Vasopressin V1b receptor, 3.1 µM (active); in experiment [5] it was 0.0166 µM (active).

In the case of `CN(C[C@H]1N[C@@H](CO)[C@@H]1c1ccc(C2=CCCC2)cc1)C(=O)c1ccncc1`, the AC50 is 17.5 µM (active) in experiment [6]; 10.9 µM (active) in [7]; 19.3 µM (active) in experiment [8]; > 32 µM (inactive) in [9]; 21.1 µM (active) in [10]; 16.2 µM (active) in experiment [11]. Besides, the AC50 in [12] was 16.3 µM (active); in experiment [13], 47.5 µM (active); in experiment [14], 16.2 µM (active); on Paired box protein Pax-8 it was 6.17 µM (active).

As to `O=C(CNC(=O)c1ccc(Cl)c(Cl)c1)N[C@@H]1CCCc2ccccc21`, the AC50 in experiment [15] was > 52 µM (inactive).

Take `CC(=O)CSc1nnc(-c2ccco2)n1-c1ccccc1`: the AC50 in experiment [16] was > 30 µM (inactive).

As to `CO[C@@]12[C@H](COC(N)=O)C3=C(C(=O)C(C)=C(N)C3=O)N1C[C@@H]1N[C@@H]12` [MITOMYCIN], the GI50 was 1.39 µM (inactive) in the experiment on P388/ADR, 0.959 µM (active) with SN12K1 and 0.181 µM (active) with P388. The IC50 is > 20 µM (inactive) in experiment [17]; 0.995 µM (active) in [18]; 2.57 µM (active) in experiment [19]; > 10 µM (inactive) in experiment [20]; 0.0133 µM (active) in experiment [22]. In [21], the CC50 is > 40 µM (active).
